Drawing on patent US20260108546A1 (ELI LILLY AND COMPANY, priority 2024, published 2026), this text covers Emax and EC50 for 13 compounds.

The structures appear in SMILES notation.

The assay addresses T1, hGIP-R (Homo sapiens, UniProt P48546).
T1 construct: expressed in transfected cells; host or cells: HEK-293 clonal cell lines
T1 sequence (P48546 22-466): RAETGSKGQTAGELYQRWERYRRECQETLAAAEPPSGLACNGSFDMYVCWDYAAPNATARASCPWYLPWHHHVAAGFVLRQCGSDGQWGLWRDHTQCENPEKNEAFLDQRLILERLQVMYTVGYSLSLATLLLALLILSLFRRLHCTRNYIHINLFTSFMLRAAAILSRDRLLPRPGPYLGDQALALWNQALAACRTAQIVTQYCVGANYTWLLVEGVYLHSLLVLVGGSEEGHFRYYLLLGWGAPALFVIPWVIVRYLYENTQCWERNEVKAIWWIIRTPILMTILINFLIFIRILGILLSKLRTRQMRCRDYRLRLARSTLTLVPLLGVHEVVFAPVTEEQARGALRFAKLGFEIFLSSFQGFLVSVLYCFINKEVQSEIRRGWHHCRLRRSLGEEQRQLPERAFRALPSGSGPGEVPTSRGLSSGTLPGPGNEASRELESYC
The experiment in a line: Functional hGIP-R Assay (cAMP formation, HTRF). Format: cell-based. The note with it: for Emax: cAMP efficacy, percent of maximal response to GIP(1-42)OH, 37° C., 0.1% bovine casein, arithmetic mean ± SEM; for EC50: cAMP potency, HEK-293 cells expressing hGIP-R, incubated at 37° C. in the presence of 0.1% bovine casein, geometric mean, read-out: Human GIP-R EC50, nM (SEM, n). An outline of the steps: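 Relative EC50 and Emax came from four-parameter logistic fits of cAMP as a percent of the human GIP (1-42) OH maximal response. The cAMP was measured by competitive HTRF after 30 min, 37 °C compound exposure of hGIP-R HEK-293 clones in IBMX (250 μM)-containing medium.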

`[2H]C([2H])([2H])n1cc(C[C@H](C(=O)NC(C)(C)Cn2nc(C(F)(F)F)cc2-c2ccc(C)nc2)N2CC[C@@]3(C[C@@H]3c3ccc(-c4cnc5nc(C6CC6)cn5c4)nc3C)C2=O)cn1` [Example 175, (R)-2-((1R,3R)-1-(6-(2-cyclopropylimidazo[1,2-a]pyrimidin-6-yl)-2-methylpyridin-3-yl)-4-oxo-5-azaspiro[2.4]heptan-5-yl)-N-(2-methyl-1-(5-(6-methylpyridin-3-yl)-3-(trifluoromethyl)-1H-pyrazol-1-yl)propan-2-yl)-3-(1-(methyl-d3)-1H-pyrazol-4-yl)propanamide]: the Emax came out at 112 ± 1.44% and the EC50 came to 0.996 nM.

Regarding `COCc1cn2cc(-c3ccc([C@H]4C[C@@]45CCN([C@H](Cc4cnn(C(F)F)c4)C(=O)NC(C)(C)Cn4nc(C(F)(F)F)cc4-c4cncc(C)n4)C5=O)c(C)n3)cnc2n1` [Example 176, (R)-3-(1-(difluoromethyl)-1H-pyrazol-4-yl)-2-((1R,3R)-1-(6-(2-(methoxymethyl)imidazo[1,2-a]pyrimidin-6-yl)-2-methylpyridin-3-yl)-4-oxo-5-azaspiro[2.4]heptan-5-yl)-N-(2-methyl-1-(5-(6-methylpyrazin-2-yl)-3-(trifluoromethyl)-1H-pyrazol-1-yl)propan-2-yl)propanamide], the maximum response (Emax) was 123% and the EC50 worked out at 14.4 nM.

In the case of `Cc1cn2cc(-c3ccc([C@H]4C[C@@]45CCN([C@H](Cc4cnn(C(F)F)c4)C(=O)NC(C)(C)Cn4nc(C(F)(F)F)cc4-c4ccc(C(C)(C)O)nc4)C5=O)c(C)n3)cnc2n1` [Example 178, (R)-3-(1-(difluoromethyl)-1H-pyrazol-4-yl)-N-(1-(5-(6-(2-hydroxypropan-2-yl)pyridin-3-yl)-3-(trifluoromethyl)-1H-pyrazol-1-yl)-2-methylpropan-2-yl)-2-((1R,3R)-1-(2-methyl-6-(2-methylimidazo[1,2-a]pyrimidin-6-yl)pyridin-3-yl)-4-oxo-5-azaspiro[2.4]heptan-5-yl)propanamide], the Emax stood at 39.9 ± 0.556% and the half-maximal effective concentration (EC50) worked out at 0.743 nM.

As for `Cc1ncc(-c2cc(C(F)(F)F)nn2CC(C)(C)NC(=O)[C@@H](Cc2cnn(C(F)F)c2)N2CC[C@@]3(C[C@@H]3c3ccc(-c4cnc5nn(C6CC6)cc5c4)nc3C)C2=O)cn1` [Example 179, (R)-2-((1R,3R)-1-(6-(2-cyclopropyl-2H-pyrazolo[3,4-b]pyridin-5-yl)-2-methylpyridin-3-yl)-4-oxo-5-azaspiro[2.4]heptan-5-yl)-3-(1-(difluoromethyl)-1H-pyrazol-4-yl)-N-(2-methyl-1-(5-(2-methylpyrimidin-5-yl)-3-(trifluoromethyl)-1H-pyrazol-1-yl)propan-2-yl)propanamide], the Emax turned out to be 75.9 ± 4.59% and the EC50 came out at 2.95 nM.

As for `COc1nnc(C)cc1-c1cc(C(F)(F)F)nn1CC(C)(C)NC(=O)[C@@H](Cc1cnn(C(F)F)c1)N1CC[C@@]2(C[C@@H]2c2ccc(-c3cnc4nn(C)cc4c3)nc2C)C1=O` [Example 180, (R)-3-(1-(difluoromethyl)-1H-pyrazol-4-yl)-N-(1-(5-(3-methoxy-6-methylpyridazin-4-yl)-3-(trifluoromethyl)-1H-pyrazol-1-yl)-2-methylpropan-2-yl)-2-((1R,3R)-1-(2-methyl-6-(2-methyl-2H-pyrazolo[3,4-b]pyridin-5-yl)pyridin-3-yl)-4-oxo-5-azaspiro[2.4]heptan-5-yl)propanamide], the Emax stood at 35.4 ± 1.96% and the EC50 is 7.75 nM.

For `COC(=O)N(C)c1cc([C@H]2C[C@@H]2C(=O)N[C@H](Cc2cnn(C(F)F)c2)C(=O)NC(C)(C)Cn2nc(C(F)(F)F)cc2-c2cc(F)c(=O)n(C)c2)c(F)cc1O` [Example 181, Methyl (5-((1S,2S)-2-(((R)-3-(1-(difluoromethyl)-1H-pyrazol-4-yl)-1-((1-(5-(5-fluoro-1-methyl-6-oxo-1,6-dihydropyridin-3-yl)-3-(trifluoromethyl)-1H-pyrazol-1-yl)-2-methylpropan-2-yl)amino)-1-oxopropan-2-yl)carbamoyl)cyclopropyl)-4-fluoro-2-hydroxyphenyl)(methyl)carbamate], the Emax is 25.5 ± 2.92% and the EC50 turned out to be 23.1 nM.

For the compound `Cn1cc(-c2cc(C(F)(F)F)nn2CC(C)(C)NC(=O)[C@@H](Cc2cnn(C(F)F)c2)NC(=O)[C@H]2C[C@@H]2c2ccc3c(c2)n(C)c(=O)n3C)cc(F)c1=O` [Example 182], the maximal effect (Emax) is 30.4 ± 2.08% and the concentration for a half-maximal effect (EC50) is 41.4 nM.

As to `Cn1cc(-c2cc(C(F)(F)F)nn2CC(C)(C)NC(=O)[C@@H](Cc2cnn(C(F)F)c2)NC(=O)[C@H]2C[C@@H]2c2ccc3c(Cl)nn(C)c3c2)cc(F)c1=O` [Example 183, (1S,2S)-2-(3-chloro-1-methyl-1H-indazol-6-yl)-N-((R)-3-(1-(difluoromethyl)-1H-pyrazol-4-yl)-1-((1-(5-(5-fluoro-1-methyl-6-oxo-1,6-dihydropyridin-3-yl)-3-(trifluoromethyl)-1H-pyrazol-1-yl)-2-methylpropan-2-yl)amino)-1-oxopropan-2-yl)cyclopropane-1-carboxamide], the maximal response (Emax) was 4.64 ± 0.608% and the half-maximal effective concentration (EC50) was found to be 44.9 nM.

Consider `[2H]C([2H])([2H])n1cc(C[C@H](C(=O)NC(C)(C)Cn2nc(C(F)(F)F)cc2-c2ccc(C(C)(C)O)nc2)N2CC[C@@]3(C[C@@H]3c3ccc(-c4cnc5nc(C6CC6)cn5c4)nc3C)C2=O)cn1` [Example 185, (R)-2-((1R,3R)-1-(6-(2-cyclopropylimidazo[1,2-a]pyrimidin-6-yl)-2-methylpyridin-3-yl)-4-oxo-5-azaspiro[2.4]heptan-5-yl)-N-(1-(5-(6-(2-hydroxypropan-2-yl)pyridin-3-yl)-3-(trifluoromethyl)-1H-pyrazol-1-yl)-2-methylpropan-2-yl)-3-(1-(methyl-d3)-1H-pyrazol-4-yl)propanamide], for which the Emax turned out to be 115 ± 5.3% and the EC50 amounted to 0.402 nM.

Take `[2H]C([2H])([2H])n1cc(C[C@H](C(=O)NC(C)(C)Cn2nc(C(F)(F)F)cc2-c2cnc(C(C)(C)O)nc2)N2CC[C@@]3(C[C@@H]3c3ccc(-c4cnc5nc(C6CC6)cn5c4)nc3C)C2=O)cn1` [Example 186, (R)-2-((1R,3R)-1-(6-(2-cyclopropylimidazo[1,2-a]pyrimidin-6-yl)-2-methylpyridin-3-yl)-4-oxo-5-azaspiro[2.4]heptan-5-yl)-N-(1-(5-(2-(2-hydroxypropan-2-yl)pyrimidin-5-yl)-3-(trifluoromethyl)-1H-pyrazol-1-yl)-2-methylpropan-2-yl)-3-(1-(methyl-d3)-1H-pyrazol-4-yl)propanamide]: the Emax turned out to be 104 ± 0.548% and the half-maximal effective concentration (EC50) stood at 1.75 nM.

Consider `[2H]C([2H])([2H])n1cc(C[C@H](C(=O)NC(C)(C)Cn2nc(C(F)(F)F)cc2-c2cnc(C(C)(C)O)nc2)N2CC[C@@]3(C[C@@H]3c3ccc(-c4cnc5nc(C)cn5c4)cc3Cl)C2=O)cn1` [Example 187, (R)-2-((1S,3R)-1-(2-chloro-4-(2-methylimidazo[1,2-a]pyrimidin-6-yl)phenyl)-4-oxo-5-azaspiro[2.4]heptan-5-yl)-N-(1-(5-(2-(2-hydroxypropan-2-yl)pyrimidin-5-yl)-3-(trifluoromethyl)-1H-pyrazol-1-yl)-2-methylpropan-2-yl)-3-(1-(methyl-d3)-1H-pyrazol-4-yl)propanamide], for which the maximum response (Emax) is 84.6 ± 2.33% and the EC50 is 1.26 nM.

With `[2H]C([2H])([2H])n1cc(C[C@H](C(=O)NC(C)(C)Cn2nc(C(F)(F)F)cc2-c2ccc(C(C)(C)O)nc2)N2CC[C@@]3(C[C@@H]3c3ccc(-c4cnc5nc(COC)cn5c4)cc3Cl)C2=O)cn1` [Example 188, (R)-2-((1S,3R)-1-(2-chloro-4-(2-(methoxymethyl)imidazo[1,2-a]pyrimidin-6-yl)phenyl)-4-oxo-5-azaspiro[2.4]heptan-5-yl)-N-(1-(5-(6-(2-hydroxypropan-2-yl)pyridin-3-yl)-3-(trifluoromethyl)-1H-pyrazol-1-yl)-2-methylpropan-2-yl)-3-(1-(methyl-d3)-1H-pyrazol-4-yl)propanamide], the Emax stood at 110 ± 4.51% and the EC50 turned out to be 0.265 nM.

For `[2H]C([2H])([2H])n1cc(C[C@H](C(=O)NC(C)(C)Cn2nc(C(F)(F)F)cc2-c2ccc(C(C)(C)O)nc2)N2CC[C@@]3(C[C@@H]3c3ccc(-c4cnc5nn(CC)cc5c4)nc3C)C2=O)cn1` [Example 189, (R)-2-((1R,3R)-1-(6-(2-Ethyl-2H-pyrazolo[3,4-b]pyridin-5-yl)-2-methylpyridin-3-yl)-4-oxo-5-azaspiro[2.4]heptan-5-yl)-N-(1-(5-(6-(2-hydroxypropan-2-yl)pyridin-3-yl)-3-(trifluoromethyl)-1H-pyrazol-1-yl)-2-methylpropan-2-yl)-3-(1-(methyl-d3)-1H-pyrazol-4-yl)propanamide], the maximum response (Emax) was determined as 61 ± 0.6% and the half-maximal effective concentration (EC50) worked out at 1.3 nM.
